How the values were obtained:
C57BL/6JRj male mice = experiment: Liver NAD+ in mice after oral gavage; type: in vivo; settings: equimolar of 300 mg/kg trigonelline, 120 minutes, compared to the control (FIG. 5)
Experimental: 10 weeks C57BL/6JRj male mice received trigonelline (sigma #T5509) or fenugreek seed extract enriched in trigonelline (40.45% trigonelline) by oral gavage (equimolar of 300 mg/kg trigonelline, n=8/group). After 120 minutes treatment, the liver was harvested and flash frozen in liquid nitrogen. NAD+ was measured in liver using an enzymatic method adapted from Dall, M., et al., Mol Cell Endocrinol, 2018. 473: p. 245-256.

[1] = tested on: Human Skeletal Muscle Myotubes (HSMM); experiment: Colorimetric NAD+ quantification in differentiated human primary myoblasts; type: cell-based; settings: 16 h, different doses, compared to the control (FIG. 4)
Experimental: After one day, the differentiation is induced by a medium change for 4 days. Cells were treated with synthetic trigonelline monohydrate (FIG. 4A) or with Fenugreek seed extract enriched in trigonelline containing 40.45% trigonelline (FIG. 4B) for 16 h at difference doses. NAD+ was measured using colorimetric NAD+ quantification assay (Biovision NAD+/NADH Quantitation Colorimetric Kit #k337-100).

[2] = tested on: Human Skeletal Muscle Myotubes (HSMM); settings: 6 h
Experimental: Human primary myoblasts from two different donors were seeded in 6 well plates at a density of 200′000 cells per well in skeletal muscle growth medium (SKM-M, AMSbio). After one day, the differentiation was induced by a medium change for 4 days using differentiation culture medium (Gibco No. 31330-028). Cells were treated with isotopically labelled trigonelline (^13C carbonyl; 3^2H on methyl) for 6 h.
Cell extracts were separated on a Vanquish UHPLC+ focused LC system (Thermo Scientific) with a hydrophilic liquid chromatography (HILIC) iHILIC-Fusion(P) column (Hilicon) carrying the dimensions 150×2.1 mm, 5 μm and a guard column (iHILIC-fusion(P), Hilicon) in front. The separation of metabolites was achieved by applying a linear solvent gradient in normal phase at 0.25 mL/min flow rate and 35° C. of temperature. As mobile phase, solvent A was water with 10 mM ammonium acetate and 0.04% (v/v) ammonium hydroxide, pH ˜9.3, and solvent B was acetonitrile.
The eluting metabolites were analyzed with an Orbitrap Fusion Lumos mass spectrometer (Thermo Scientific) with a heated electrospray ionization (H-ESI) source in positive and negative mode at a resolution of 60,000 at m/z of 200. Instrument control and data analysis were conducted using Xcalibur (Thermo Scientific).

C. elegans [3] = settings: 1 mM, chronic exposure from Day 1 adulthood (FIG. 7A)
Experimental: Worm lifespan tests were performed using about 100 animals per condition and scored manually every other day. Trigonelline treatment and experimental measurements were started at Day 1 of wild type N2 worm adulthood, in a regimen of chronic exposure till experiments termination.

C. elegans [4] = settings: 1 mM, day 8 and day 11 old worms (FIG. 7D)
Description: 45 to 60 worms per condition were manually scored for mobility after poking. Worms that were unable to respond to any repeated stimulation were scored as dead. […] Trigonelline treatment and experimental measurements were started at Day 1 of wild type N2 worm adulthood, in a regimen of chronic exposure til experiments termination.

C. elegans [5] = settings: 1 mM
Experimental: C. elegans mobility test was performed using the Movement Tracker software (Mouchiroud, L. et al. Curr Protoc Neurosci 77, 8.37.1-8.37.21 (2016)). The experiments were repeated at least twice. Trigonelline treatment and experimental measurements were started at Day 1 of wild type N2 worm adulthood, in a regimen of chronic exposure till experiments termination.

wild type N2 worms = settings: 1 mM trigonelline chloride, day 8 old worms (FIG. 8)
Experimental: Absolute quantification of the mtDNA copy number in wild type N2 worms was performed by real-time PCR. Relative values for nduo-1, and act-1 were compared within each sample to generate a ratio representing the relative level of mitochondrial DNA per nuclear genome. The average of at least two technical repeats was used for each biological data point. Each experiment was performed on at least ten independent biological samples (individual worms). Trigonelline treatment with 1 mM trigonelline chloride and experimental measurements were started at Day 1 of wild type N2 worm adulthood, in a regimen of chronic exposure till experiments termination.

[6] = tested on: RW1596 (myo-3p::GFP) worms; settings: 1 mM trigonelline chloride, 11 day old worms vs age matched control
Experimental: RW1596 (myo-3p::GFP) worms were collected at Day 1 (young adults) and at Day 11 (aged animals) for muscle integrity assessment. Worms were immobilized with tetramisole and analyzed by confocal microscopy, to assess the muscle fibers morphology shown by GFP fluorescence imaging. Trigonelline treatment with 1 mM trigonelline chloride and experimental measurements were started at Day 1 of wild type N2 worm adulthood, in a regimen of chronic exposure till experiments termination.

Structure (SMILES): C[n+]1cccc(C(=O)O)c1.[OH-] [chemically synthesized trigonelline]
- NAD+ content in the liver (C57BL/6JRj male mice): significant increase
- NAD+ content [1]: significant increase

Structure (SMILES): [2H]C([2H])([2H])[n+]1cccc([13C](=O)[O-])c1 [labelled trigonelline]
- relative abundance of labelled NAD+ (M+ 1) ([2]; labelled trigonelline 500 μm, vs naturally occurring NAD+ control (FIG. 2B)): increase in relative abundance of labelled NAD+ (M+ 1)

Structure (SMILES): C[n+]1cccc(C(=O)O)c1 [trigonelline chloride]
- lifespan increase (C. elegans [3]): 21%
- stimulated mobility score (percentage of worms responsive to a physical stimulus) (C. elegans [4]): more responsive to a physical stimulus than the control
- distance travelled during spontaneous mobility assay (C. elegans [5]; advanced aging phase, compared to control (FIG. 7C)): significantly increased
- mean speed during spontaneous mobility assay (C. elegans [5]; from day 1 adulthood, compared to control (FIG. 7B)): increased the mean speed

Structure (SMILES): C[n+]1cccc(C(=O)[O-])c1 [trigonelline, 1-methylpyridin-1-ium-3-carboxylate]
- mitochondrial (nduo-1) relative to nuclear (act-1) DNA ratio (wild type N2 worms): higher than in the control group
- NAD+ relative concentration ([2]; 500 μm, HSMM from 2 donors, LC-MS, relative to control (FIG. 2A)): enhancement of NAD+
- myofibrillar structure (GFP-tagged myosin) [6]: improved more organized myofibrillar structure

Source: patent publication US20220241259A1, “COMPOSITIONS AND METHODS USING TRIGONELLINE AND VITAMINS FOR PREVENTING OR TREATING CONDITIONS OR DISORDERS IN SKELETAL MUSCLE” (SOCIETE DES PRODUITS NESTLE S.A., priority 2019, published 2022)
